Laboratory results as given in PubChem BioAssay AID1918991 (Molecular Pharmacology Branch, DTP, NCI, 2023).
Where “and” joins values, the source holds several entries; their conditions need not be identical. Equal entries are not always repeated.

Test system: 186277-243-T-J2-PDC complex spheroid growth
Assay: Anticancer human tumor 186277-243-T-J2-PDC patient-derived colon adenocarcinoma cell line growth inhibition [AhR]
Details: for viability, T/C: stronger effect = lower value
In short: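 Agents were dosed in half-log steps down from roughly clinical Cmax, or from 10 microM where Cmax was unknown, alone and with AhR antagonists. Read-out: percent test/control growth of tumor spheroids containing HUVEC and MSC stromal cells.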

[1] = curve of first compound, second compound 0.1 µM
[2] = curve of first compound, second compound 0.316 µM
[3] = curve of first compound, second compound 1 µM
[4] = curve of first compound, second compound 3.16 µM
[5] = curve of first compound, second compound 10 µM
[6] = second compound 0.1 µM, first compound 0.0316 µM
[7] = second compound 0.1 µM, first compound 0.1 µM
[8] = second compound 0.1 µM, first compound 0.316 µM
[9] = second compound 0.1 µM, first compound 1 µM
[10] = second compound 0.1 µM, first compound 3.16 µM
[11] = second compound 0.1 µM, first compound 10 µM
[12] = second compound 0.316 µM, first compound 0.0316 µM
[13] = second compound 0.316 µM, first compound 0.1 µM
[14] = second compound 0.316 µM, first compound 0.316 µM
[15] = second compound 0.316 µM, first compound 1 µM
[16] = second compound 0.316 µM, first compound 3.16 µM
[17] = second compound 0.316 µM, first compound 10 µM
[18] = second compound 1 µM, first compound 0.0316 µM
[19] = second compound 1 µM, first compound 0.1 µM
[20] = second compound 1 µM, first compound 0.316 µM
[21] = second compound 1 µM, first compound 1 µM
[22] = second compound 1 µM, first compound 3.16 µM
[23] = second compound 1 µM, first compound 10 µM
[24] = second compound 3.16 µM, first compound 0.0316 µM
[25] = second compound 3.16 µM, first compound 0.1 µM
[26] = second compound 3.16 µM, first compound 0.316 µM
[27] = second compound 3.16 µM, first compound 1 µM
[28] = second compound 3.16 µM, first compound 3.16 µM
[29] = second compound 3.16 µM, first compound 10 µM
[30] = second compound 10 µM, first compound 0.0316 µM
[31] = second compound 10 µM, first compound 0.1 µM
[32] = second compound 10 µM, first compound 0.316 µM
[33] = second compound 10 µM, first compound 1 µM
[34] = second compound 10 µM, first compound 3.16 µM
[35] = second compound 10 µM, first compound 10 µM
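Note: spheroids exposed to compounds for seven days before the viability read.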
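Throughout, for viability, T/C: luminescent signal used as a stand-in for viable cell amount; 100% = DMSO vehicle control wells.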

COc1ccc([C@@H](O)c2cc(-c3ncnc4cc(N5CCOCC5)ccc34)c(F)cc2Cl)nn1 + CC(CO)NC(=O)c1cc(-c2ccc(Cl)cc2)nn(-c2cnn(C)c2)c1=O
IC50 [1]: 3230 nM | IC50 [2]: 3710 nM | IC50 [3]: 3030 nM | IC50 [4]: 2560 nM | IC50 [5]: 1620 nM | viability, T/C [6]: 105% | viability, T/C [7]: 96.3% | viability, T/C [8]: 96.8% | viability, T/C [9]: 73.5% | viability, T/C [10]: 51.6% | viability, T/C [11]: 20.7% | viability, T/C [12]: 109% | viability, T/C [13]: 98.8% | viability, T/C [14]: 84.2% | viability, T/C [15]: 85.1% | viability, T/C [16]: 53.9% | viability, T/C [17]: 18.4% | viability, T/C [18]: 95.5% | viability, T/C [19]: 95.6% | viability, T/C [20]: 87.3% | viability, T/C [21]: 78.8% | viability, T/C [22]: 48.4% | viability, T/C [23]: 19.1% | viability, T/C [24]: 88.3% | viability, T/C [25]: 95.7% | viability, T/C [26]: 87% | viability, T/C [27]: 74.8% | viability, T/C [28]: 44.5% | viability, T/C [29]: 18.1% | viability, T/C [30]: 88.8% | viability, T/C [31]: 72.6% | viability, T/C [32]: 78.9% | viability, T/C [33]: 64% | viability, T/C [34]: 30.7% | viability, T/C [35]: 15.6%

Nc1ccccc1NC(=O)c1ccc(CNC(=O)OCc2cccnc2)cc1 + CC(CO)NC(=O)c1cc(-c2ccc(Cl)cc2)nn(-c2cnn(C)c2)c1=O
IC50 [1]: 560 nM | IC50 [2]: 486 nM | IC50 [3]: 496 nM | IC50 [4]: 447 nM | IC50 [5]: 211 nM | viability, T/C [6]: 89% | viability, T/C [7]: 95.2% | viability, T/C [8]: 67.4% | viability, T/C [9]: 30.2% | viability, T/C [10]: 10.7% | viability, T/C [11]: 0.66% | viability, T/C [12]: 84.3% | viability, T/C [13]: 87.1% | viability, T/C [14]: 57.2% | viability, T/C [15]: 32.9% | viability, T/C [16]: 8.17% | viability, T/C [17]: 0.43% | viability, T/C [18]: 93% | viability, T/C [19]: 94.7% | viability, T/C [20]: 61.8% | viability, T/C [21]: 28.1% | viability, T/C [22]: 8.39% | viability, T/C [23]: 0.38% | viability, T/C [24]: 83.7% | viability, T/C [25]: 79.7% | viability, T/C [26]: 62.2% | viability, T/C [27]: 22.2% | viability, T/C [28]: 7.6% | viability, T/C [29]: 0.3% | viability, T/C [30]: 70.3% | viability, T/C [31]: 68.8% | viability, T/C [32]: 39.2% | viability, T/C [33]: 16.6% | viability, T/C [34]: 7.12% | viability, T/C [35]: 0.32%

CCc1c2c(nc3ccc(O)cc13)-c1cc3c(c(=O)n1C2)COC(=O)[C@]3(O)CC + Cc1cncc(-c2nc(NCCc3c[nH]c4ccccc34)c3ncn(C(C)C)c3n2)c1
IC50 [1]: 23.2 nM | IC50 [2]: 20.4 nM | IC50 [3]: 26.2 nM | IC50 [4]: 17.8 nM | IC50 [5]: < 0.949 nM | viability, T/C (second compound 0.1 µM, first compound 0.000949 µM): 112% | viability, T/C (second compound 0.1 µM, first compound 0.003 µM): 96% | viability, T/C (second compound 0.1 µM, first compound 0.00949 µM): 66% | viability, T/C (second compound 0.1 µM, first compound 0.03 µM): 46.1% | viability, T/C (second compound 0.1 µM, first compound 0.0949 µM): 25.2% | viability, T/C (second compound 0.1 µM, first compound 0.3 µM): 11.7% | viability, T/C (second compound 0.316 µM, first compound 0.000949 µM): 126% | viability, T/C (second compound 0.316 µM, first compound 0.003 µM): 83.1% | viability, T/C (second compound 0.316 µM, first compound 0.00949 µM): 70.9% | viability, T/C (second compound 0.316 µM, first compound 0.03 µM): 44.2% | viability, T/C (second compound 0.316 µM, first compound 0.0949 µM): 21.7% | viability, T/C (second compound 0.316 µM, first compound 0.3 µM): 11.7% | viability, T/C (second compound 1 µM, first compound 0.000949 µM): 123% | viability, T/C (second compound 1 µM, first compound 0.003 µM): 83.7% | viability, T/C (second compound 1 µM, first compound 0.00949 µM): 73.5% | viability, T/C (second compound 1 µM, first compound 0.03 µM): 48.5% | viability, T/C (second compound 1 µM, first compound 0.0949 µM): 20.2% | viability, T/C (second compound 1 µM, first compound 0.3 µM): 11.8% | viability, T/C (second compound 3.16 µM, first compound 0.000949 µM): 108% | viability, T/C (second compound 3.16 µM, first compound 0.003 µM): 75.2% | viability, T/C (second compound 3.16 µM, first compound 0.00949 µM): 66.8% | viability, T/C (second compound 3.16 µM, first compound 0.03 µM): 43.7% | viability, T/C (second compound 3.16 µM, first compound 0.0949 µM): 17.3% | viability, T/C (second compound 3.16 µM, first compound 0.3 µM): 9.67% | viability, T/C (second compound 10 µM, first compound 0.000949 µM): 24.6% | viability, T/C (second compound 10 µM, first compound 0.003 µM): 28.9% | viability, T/C (second compound 10 µM, first compound 0.00949 µM): 32% | viability, T/C (second compound 10 µM, first compound 0.03 µM): 17.6% | viability, T/C (second compound 10 µM, first compound 0.0949 µM): 6.54% | viability, T/C (second compound 10 µM, first compound 0.3 µM): 3.87%

Nc1ncn(C2CC(O)C(CO)S2)c(=O)n1 (configuration not stated)
viability, T/C (compound 0.000949 µM): 87.2% and 104% and 95.7% | viability, T/C (compound 0.003 µM): 88% and 111% and 97.1% | viability, T/C (compound 0.00949 µM): 108% and 115% and 92.5% | viability, T/C (compound 0.03 µM): 125% and 111% and 78.5% | viability, T/C (compound 0.0949 µM): 128% and 116% and 60.8% | viability, T/C (compound 0.3 µM): 102% and 117% and 26.4% | IC50 (curve of compound): > 300 nM and 134 nM

Nc1ccn(C2OC(CO)C(O)C2(F)F)c(=O)n1 (configuration not stated) + Cc1cncc(-c2nc(NCCc3c[nH]c4ccccc34)c3ncn(C(C)C)c3n2)c1
IC50 [1]: < 31.6 nM | IC50 [2]: < 31.6 nM | IC50 [3]: < 31.6 nM | IC50 [4]: < 31.6 nM | IC50 [5]: < 31.6 nM | viability, T/C [6]: 7.18% | viability, T/C [7]: 8.73% | viability, T/C [8]: 9.08% | viability, T/C [9]: 7.46% | viability, T/C [10]: 9.53% | viability, T/C [11]: 8.43% | viability, T/C [12]: 7.58% | viability, T/C [13]: 7.59% | viability, T/C [14]: 8.77% | viability, T/C [15]: 7.4% | viability, T/C [16]: 9.8% | viability, T/C [17]: 10.2% | viability, T/C [18]: 8.42% | viability, T/C [19]: 8.73% | viability, T/C [20]: 8.67% | viability, T/C [21]: 8.54% | viability, T/C [22]: 10.4% | viability, T/C [23]: 9.89% | viability, T/C [24]: 8.88% | viability, T/C [25]: 9.87% | viability, T/C [26]: 8.78% | viability, T/C [27]: 9.16% | viability, T/C [28]: 10.2% | viability, T/C [29]: 11.2% | viability, T/C [30]: 9.79% | viability, T/C [31]: 9.68% | viability, T/C [32]: 7.97% | viability, T/C [33]: 8.56% | viability, T/C [34]: 9.28% | viability, T/C [35]: 10.2%
